Data set [1] has as its system neuroinflammatory response induced by LPS. Conditions: I5 100 µg per mouse s.c. As to the method: 120 mice (female C57BL/6) mice approximately 6 weeks old were assigned into groups based on body weight, creating homogenous groups, and acclimated to facility conditions over 5 days.
A neuroinflammatory response was induced in all mice by intraperitoneal administration of 5 mg/kg of LPS. […] Group 2: dexamethasone at […]. Group 3: Vehicle. Test items were administered at the following time points: 30 minutes before LPS injection, 2 hours post-LPS injection and 10 hours post LPS injection (where applicable). 10 animals from each group were sacrificed at the following time points: 4, 8, 24 and 48 hours post LPS administration. Brains were collected and preserved in buffered 4% formaldehyde. Bronchoalveolar lavage fluid was extract from lungs of all animals.

Data set [2] deals with activated macrophages (THP1 monocytes transformed with PMA, infected with Leishmania donovani). Conditions: for activated macrophage survival: 0.1, 1 and 10 µg/ml, 12-14 hours of incubation, FIG. 1. Here is the method: A macrophage killing assay was performed in order to determine potential of conjugates described herein for treatment of macrophage-related diseases. THP1 monocytes were transformed into macrophages for using phorbol myristate acetate (PMA). […] The data shown in FIG. 1 represents macrophage survival percent after 12-14 hours of incubation with conjugates. […] In the figure, series 1 represents control macrophages which were not infected. Series 2, 3 and 4 represent the 0.1, 1 and 10 µg/ml dosages. The values shown in these series represented number of cells, as normalized to control, non-infected macrophages.
(§1) Media used for macrophage assay: RPMI with 10% FCS, supplemented with pencillin streptomycin and glutamine. The compounds were prepared in phosphate buffered saline with pH adjusted to 7.6 and were used immediately after preparation.
Infection of macrophage: The macrophages were infected with 5x times with Leishmania donovani - for a density of 1x10^5 monocytes transformed to macrophage, the infection density is 5 x 10^5 L.donovani.
(§2) The experiment was performed according to the following schedule: • Monocyte to macrophage transformation: 0 to 48 hours • Macrophage Infection with Leishmania: 48-84 hours • Treatment with compound: 84 - 96 hours • Plate used for assay: Microscopy compatible glass bottom plate -24 wells.
The macrophages that were alive were counted in five different fields of the wells for different concentration and the average count was used for the assay. Based on the count of the control macrophages, the % was adjusted.

The test system of data set [3] is cytokines levels after LPS induction. Conditions: 100 µg per mouse s.c.
Data set [4] can be described thus: in vivo. Conditions: female, ICR, mouse.
The test system of data set [5] is non-infected macrophages (THP1 monocytes transformed with PMA). Conditions: 10 µg/ml, live imaging, 8 hours, FIG. 2. Here is the method:
A macrophage killing assay was performed in order to determine potential of conjugates described herein for treatment of macrophage-related diseases. THP1 monocytes were transformed into macrophages for using phorbol myristate acetate (PMA). […] The data shown in FIG. […] In the figure, series 1 represents control macrophages which were not infected. Series 2, 3 and 4 represent the 0.1, 1 and 10 µg/ml dosages. The values shown in these series represented number of cells, as normalized to control, non-infected macrophages.
as §1, §2

For data set [6] the following is noted: female, ICR, mouse, in vivo.
The conditions of data set [7]: fasted mice. Here is the method: CC57BL/6 mice aged approximately 9 weeks were weighed and acclimated to facility conditions. Animals were assigned to 3 treatment groups based on their body weights, creating homogenous groups of 5 mice in each group. After fasting, blood glucose of levels of mice were tested at time 0, at which time the test drug was administered, then subsequently at 30, 60, 90 and 120 minutes post administration, using blood glucose test strips.

Where [8] appears, read: 24 hours following LPS induction.
Setting [9] is: plasma, parameters used for estimating t½.
The mark [10] stands for this setting: plasma, single IV, I5 200 mg/kg, dexamethasone sodium phosphate 40 mg/kg.

Where two headings read alike, the source gives them in different places.

The values that follow come from patent publication US20230355773A1, “[…] DRUG CONJUGATES” (P.I.F. Entrepreneurs Ltd., priority 2020, published 2023).

As a reminder, the half-life is how long it takes for the measured level to halve. The Tmax is the time at which the peak concentration occurs. By clearance is commonly meant the rate of elimination divided by the concentration. Low readings indicate inefficient removal, high ones efficient removal. For orientation: Vd means the apparent volume that relates the amount in the body to the concentration in plasma or blood. With `C[C@@H]1C[C@H]2[C@@H]3CCC4=C/C(=N/OCCCO[C@H]5O[C@H](CO)[C@@H](O)[C@H](O)[C@@H]5O)C=C[C@]4(C)[C@@]3(F)[C@@H](O)C[C@]2(C)[C@@]1(O)C(=O)CO` [Compound I5, 1-((8S,9R,10S,11S,13S,14S,16R,17R,E)-9-Fluoro-11,17-Dihydroxy-10,13,16-Trimethyl-3-((3-(((2S,3S,4S,5S,6R)-3,4,5–Trihydroxy-6-(Hydroxymethyl)Tetrahydro-2H-Pyran-2-yl)oxy)propoxy)imino)-6,7,8,9,10,11,12,13,14,15,16,17-Dodecahydro-3H-cyclopenta[a]phenanthren-17-yl)-2-Hydroxyethan-1-One], the “Clinical score - Appearance” value in data set [1] (24 Hr. following LPS induction, vs groups 2 and 3) is “best clinical score”. Also, in data set [1] (setting [8]), the “Clinical score - Eye condition” value was “best clinical score”. In addition, the “Clinical score - Response to stimulus” value in data set [1] (setting [8]) is reported as “best clinical score”. In addition, in data set [1] (compared to groups 2 and 3), the Total clinical score entry was “best clinical score”. For the same molecule, the “time to killing of activated macrophages” value in data set [2] (10 µg/ml, live imaging, FIG. 2) was at most 8 h. In data set [2], the activated macrophage survival entry is on record as “particularly effective”. Under “200 mg Compound I5 compared to 40 mg Dexamethasone”, this molecule gave a relative systemic exposure of 4.2%. Also, the “elimination curve in plasma” value (mice after IV dosing) is reported as “two-phase elimination curve”. Further, under setting [9], the AUC%Extrap is given as 0.403%. In addition, the Lambda z under setting [9] was 0.164 h⁻¹. Also, the AUCINF/Dose (plasma, single IV) is 93.4 h^∗ng/mL/mg/kg. The “Exprel, relative systemic exposure [AUCinf/dose (Compound I5)/AUCinf/dose (Dexamethasone)] x 100” value (plasma, single IV, I5 200 mg/kg vs dexamethasone 40 mg/kg) is given as 4.2%. This molecule returned a CL under setting [10] of 178.33 mL/min/kg. The same molecule displayed a Tlast under setting [10] of 24.0 h. Also, in data set [3] (LPS model), the “blood-brain barrier penetration, evidenced by CNS cytokine levels” value is “able to penetrate the blood-brain barrier”. For the same molecule, the “Cytokines levels in Bronchoalveolar lavage fluid” value in data set [3] (IL-1 a and MCP1 (4 Hr. post LPS), MCP1 (8 Hr. post LPS)) was “immunomodulatory effect”. The “Cytokines levels in brains” value in data set [3] (IL-2 (4 and 8 Hr. post LPS), IL-10 (8 Hr.), VEGF a (8 and 24 Hr.), vs groups 2 and 3) is recorded as “immunomodulatory effect”. Moreover, the “Cytokines levels in serum” value in data set [3] (IL-17 and RANTES (4 Hr. post LPS), LIF (8 Hr. post LPS)) is recorded as “immunomodulatory effect”. Moreover, the half-life is 4.23 h in data set [4] (T½, plasma, table Parameters used for estimating t½ in plasma); 4.23 h in data set [4] (iv, T½, plasma, single IV, I5 200 mg/kg, dexamethasone sodium phosphate 40 mg/kg, table PK parameters in plasma); around 4.2 h in data set [4] (iv, terminal elimination half-life in plasma, mice after IV dosing). Besides, the Tmax in data set [4] (iv) stood at 5 min. The molecule also showed a clearance in data set [4] (iv) of 178 mL/min/kg. The Vd in data set [4] (iv, Vss, plasma, single IV, I5 200 mg/kg, dexamethasone sodium phosphate 40 mg/kg) is 12.1 L/kg; in data set [4] (iv, Vz, plasma, single IV, I5 200 mg/kg, dexamethasone sodium phosphate 40 mg/kg) it was 65.3 L/kg; in data set [4] (iv, distribution volume, Vss, plasma, IV), 12.1 L/kg. Besides, the “effect on macrophages not activated by infection” value in data set [5] is on record as “remained unchanged”. Moreover, the “Concentration in brain (CSF) (pooled)” value in data set [6] is 29.4 ng/mL. For the same molecule, the “pooled CSF levels detected” value in data set [6] (iv) is 6.86 to 29.4 ng/mL. Also, the “CSF levels as fold the LLOQ (5.00 ng/mL)” value in data set [6] (iv, 200 mg/kg) is on record as 1.4-5.9 fold. Besides, the “blood glucose relative to baseline” value in data set [7] (100 µg per mouse, 30 to 120 minutes post-administration) is listed as “not increased above baseline”; in data set [7] (2500 µg per mouse (25-fold molar equivalent of 65 µg dexamethasone)), “no elevation of blood glucose level”.
`CC(CC(=O)N/N=C(\CO)[C@@]1(O)[C@H](C)C[C@H]2[C@@H]3CCC4=CC(=O)C=C[C@]4(C)[C@@]3(F)C(O)C[C@@]21C)O[C@H]1OC(CO)[C@@H](O)C(O)C1O` (stereo partly shown) [MD4]: the activated macrophage survival result in data set [2] is given as “particularly effective”.
For `C[C@@H]1C[C@H]2[C@@H]3CCC4=CC(=O)C=C[C@]4(C)[C@@]3(F)C(O)C[C@]2(C)[C@@]1(O)C(=O)CO` (stereo partly shown) [dexamethasone, reference compound], the “increase of blood sugar levels (change from baseline)” value in data set [7] (dexamethasone 65 mg (so in the source), 30 to 120 minutes post administration) was “about 15%”.
